Reference: US20180282279A1, “Pantothenamide Analogues” (Radboud Universitair Medisch Centrum, priority 2014, published 2018)
Converted amounts (≈) assume the structure as drawn. Where two headings read alike, the source gives them in different places.

How the values were obtained:
Staphylococcus aureus = assay: Bacterial growth assay and MIC determination, S. aureus; type: cell-based; conditions: S. aureus
Experimental: (§1) Strains of Escherichia coli, Staphylococcus aureus and Staphylococcus epidermidis, were grown overnight in 1% Bacto tryptone medium (BD, Sparks, Md.). Streptococcus pyogenes was grown overnight in Bacto Todd Hewitt Broth medium (BD, Sparks, Md.). Cultures were then diluted 1:1,000 in fresh assay medium supplemented with or without 20% fetal bovine serum (FBS; HyClone, Celbio, Logan, Utah) and added to 96-well sterile enzyme-linked immunosorbent assay (ELISA) plates (100 μl per well). The compounds to be tested were diluted in the medium without serum and added to the bacteria (100 μl per well). Plates were incubated at 37° C., and bacterial growth was monitored over time by reading the optical density at 490 nm using a microplate reader (model 450; Bio-Rad Laboratories Inc., Hercules, Calif.). Streptococcus pneumoniae strains were grown to mid-log phase (OD620 of 0.3) and stored in 15% glycerol at […] till further use. Minimal inhibitory concentration (MIC) of antibiotics was determined according to standard procedures. Bacteria were diluted 10-fold in Mueller-Hinton medium (BD, Sparks, Md.) and added to 96-well sterile ELISA plates (150 μl per well). The compounds to be tested were diluted in the medium without serum and added to the bacteria (150 μl per well). Plates were incubated overnight at 37° C. in 5% CO2. The MIC was defined as the lowest concentration of compound at which no growth was visible with the naked eye.

[1] = tested on: Staphylococcus epidermidis; assay: Bacterial growth assay and MIC determination, S. epidermidis; type: cell-based; conditions: S. epidermidis, serum −
Experimental: as §1

Streptococcus pneumoniae = assay: MIC determination, S. pneumoniae; type: cell-based; conditions: Streptococcus pneumoniae; S. pneumoniae, serum −; read-out: MIC
Experimental: Streptococcus pneumoniae strains were grown to mid-log phase (OD620 of 0.3) and stored in 15% glycerol at […] till further use. Minimal inhibitory concentration (MIC) of antibiotics was determined according to standard procedures. Bacteria were diluted 10-fold in Mueller-Hinton medium (BD, Sparks, Md.) and added to 96-well sterile ELISA plates (150 μl per well). The compounds to be tested were diluted in the medium without serum and added to the bacteria (150 μl per well). Plates were incubated overnight at 37° C. in 5% CO2. The MIC was defined as the lowest concentration of compound at which no growth was visible with the naked eye.

Escherichia coli = assay: Bacterial growth assay and MIC determination, E. coli; type: cell-based; conditions: serum −
Experimental: as §1

[2] = Pharmacokinetic study in rats; type: in vivo; conditions: 50 mg/kg
Experimental: To address the question if increased stability would also lead to improved bioavailability in vivo, a pharmacokinetic study was performed. Briefly, the pantothenamides N5-Pan (an antibacterial compound) and CXP18.3-002 (an antimalarial compound), and their corresponding inverted amides CXP18.6-013 and CXP18.6-006 were administered to rats at 50 mg/kg dissolved in saline. Blood samples were collected from 3 rats before the experiment and at 0.25, 0.5, 1, 2, 4, 6, 8, 12 and 24 h. The concentrations of the compounds were analyzed by LC-MS/MS (AB Sciex API-4000 system). Data were analyzed by the Non-compartmental analysis tool of Phoenix WinNonlin (Version 6.3).

Streptococcus pyogenes = assay: Bacterial growth assay and MIC determination, S. pyogenes; type: cell-based; conditions: S. pyogenes, serum −
Experimental: as §1

[3] = tested on: Plasmodium berghei strain 676c11 (PbGFP-Luc); assay: In vivo rodent malaria model; conditions: female Wistar rats, 6 mg/kg orally three times a day, day 5-8
From the text: Female mice (C57 Black 6, 9-10 weeks of age at the start of the experiment) and female rats (Wistar, 150-200 grams at the beginning of the experiment) were housed under standard conditions and experiments were approved by the institutional ethical committee on animal care and experimentation of Radboud University Medical Centre (Nijmegen).
To test our compounds in an in vivo malaria model we used a well described rodent malaria model (Zuckerman and Yoeli, J Infect Dis. 94, 225-36). First, donor mice were infected by 0.2 ml cryopreserved infected blood stocks containing the transgenic Plasmodium berghei strain 676c11 (PbGFP-Luc). After four days the mice were sacrificed and their blood was collected. The parasitemia in the blood from the mice was calculated as percentage of infected red blood cells (RBC) by Giemsa-stained blood smears. Infected blood was diluted to 5×10^7 parasites per ml and 0.2 ml was i.p. injected in rats (inoculation of 10′ parasites per rat). Treatment with chloroquine (6 mg/kg), CXP18.6-017 (100 mg/kg) and CXP18.6-052 (100 mg/kg) started 5 days post inoculation and where given orally three times a day until day eight. From day 5 blood samples were collected and parasitemia was determined by analysis of Giemsa-stained blood smears. The infection and treatment regimes were well tolerated by the animals.

[4] = Staphylococcus aureus, serum −, read-out: MIC
[5] = Staphylococcus epidermidis, read-out: MIC
[6] = Escherichia coli, read-out: MIC

| Compound | MIC (Staphylococcus aureus; [4]) | MIC [1, 5] | MIC (Streptococcus pneumoniae) | MIC (Escherichia coli; [6]) | MIC (Staphylococcus aureus; serum + (10% serum)) | further results |
| --- | --- | --- | --- | --- | --- | --- |
| CCCCCNC(=O)CCNC(=O)[C@H](O)C(C)(C)CO [Compound N5-Pan, N-pentylpantothenamide, reference compound] | 8 µg/mL (≈ 27.7 µM) | 32 µg/mL (≈ 111 µM) | 0.25 µg/mL (≈ 0.867 µM) | 64 µg/mL (≈ 222 µM) |  | detection in blood following oral administration [2]: could not or hardly be detected |
| CCCCCCCNC(=O)CCNC(=O)[C@H](O)C(C)(C)CO [Compound N7-Pan, N-heptylpantothenamide, reference compound] | 0.5 µg/mL (≈ 1.58 µM) | 0.5 µg/mL (≈ 1.58 µM) | 2 µg/mL (≈ 6.32 µM) | 128 µg/mL (≈ 404 µM) | >256 µg/mL | MIC (Staphylococcus aureus; Staphylococcus aureus, serum + (10% serum), read-out: MIC): > 256 µg/mL; MIC (Streptococcus pyogenes; Streptococcus pyogenes, read-out: MIC): 2 µg/mL (≈ 6.32 µM) |
| CCCCCCCCCNC(=O)CCNC(=O)[C@H](O)C(C)(C)CO [Compound N9-Pan, reference compound] |  |  |  |  | >256 µg/mL | MIC (Staphylococcus aureus; serum −): 0.5 µg/mL (≈ 1.45 µM); MIC [1]: 0.25 µg/mL (≈ 0.726 µM); MIC (Streptococcus pyogenes): 16 µg/mL (≈ 46.4 µM); MIC (Escherichia coli): >256 µg/mL |
| CCN(CC)CCCC(C)Nc1ccnc2cc(Cl)ccc12 (stereo not drawn) [chloroquine, reference compound] |  |  |  |  |  | parasitemia [3]: reduced parasitemia to nearly undetectable levels within 3 days |
